Measured values taken from PMC10482975 (Nature Communications, 2023).
Like-named read-outs stand apart in the source and are kept apart here.

Columns and labels:
[1] = test system: M4 mAChR knockout (KO) mice / M1 mAChR KO mice; settings: cited from earlier work
M4 mAChR [2] = target: T1, M4 mAChR (Homo sapiens, UniProt P08173); assay: biochemical; settings: read-out: [3H]-NMS binding remaining (0 min = 100), MEAN, M4 mAChR; for remaining activity at 0.1 µM: 0.1 μM Xano alone; for remaining activity at 1 µM: 1 μM Xano alone; for remaining activity at 10 µM: 10 μM Xano alone
T1 sequence (P08173 1-479): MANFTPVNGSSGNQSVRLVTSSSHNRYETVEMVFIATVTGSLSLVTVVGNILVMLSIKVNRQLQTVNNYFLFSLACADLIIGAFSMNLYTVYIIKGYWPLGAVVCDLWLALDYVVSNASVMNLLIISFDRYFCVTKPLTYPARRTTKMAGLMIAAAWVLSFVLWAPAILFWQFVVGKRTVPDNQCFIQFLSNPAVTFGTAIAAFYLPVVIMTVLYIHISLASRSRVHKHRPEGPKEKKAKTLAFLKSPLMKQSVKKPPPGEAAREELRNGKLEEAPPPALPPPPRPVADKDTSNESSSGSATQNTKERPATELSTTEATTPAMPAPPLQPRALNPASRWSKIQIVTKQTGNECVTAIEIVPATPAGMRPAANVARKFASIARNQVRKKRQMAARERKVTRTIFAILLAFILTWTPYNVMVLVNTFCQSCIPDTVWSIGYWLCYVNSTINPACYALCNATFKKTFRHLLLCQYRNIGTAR

M4 mAChR [3] = target: T1, M4 mAChR

In the case of `CCCCCCOc1nsnc1C1=CCCN(C)C1` [xanomeline], the antipsychotic efficacy ([1]; M1 mAChR KO mice) is listed as “partially reduced”, the antipsychotic efficacy ([1]; M4 mAChR knockout (KO) mice) is listed as “completely abolished” and the remaining activity at 0.1 µM (M4 mAChR [2]; 0.5 h, 30 min) is listed as 90.3%. The remaining activity at 1 µM (M4 mAChR [2]; 0.5 h, 30 min) was 87.3%, the remaining activity at 100 µM (M4 mAChR [2]; 0.5 h, 10 μM Atropine + 100 μM Xanomeline, 30 min) was 85.1% and the remaining activity at 10 µM (M4 mAChR [2]; 0.5 h, 30 min) was 77.6%. For the same compound, the remaining activity at 100 µM (M4 mAChR [2]; 0.5 h, 100 μM Xano alone, 30 min) was 85.7%, the remaining activity at 0.1 µM (M4 mAChR [2]; 1 h, 60 min) was 94.4% and the remaining activity at 1 µM (M4 mAChR [2]; 1 h, 60 min) was 76.8%. It also gave a remaining activity at 100 µM (M4 mAChR [2]; 1 h, 10 μM Atropine + 100 μM Xanomeline, 60 min) of 69.6%, a remaining activity at 10 µM (M4 mAChR [2]; 1 h, 60 min) of 61% and a remaining activity at 100 µM (M4 mAChR [2]; 1 h, 100 μM Xano alone, 60 min) of 73.5%. The remaining activity at 0.1 µM (M4 mAChR [2]; 1.5 h, 90 min) was 98.4%, the remaining activity at 1 µM (M4 mAChR [2]; 1.5 h, 90 min) was 74.4% and the remaining activity at 100 µM (M4 mAChR [2]; 1.5 h, 10 μM Atropine + 100 μM Xanomeline, 90 min) was 64.1%. The remaining activity at 10 µM (M4 mAChR [2]; 1.5 h, 90 min) was 50.9%, the remaining activity at 100 µM (M4 mAChR [2]; 1.5 h, 100 μM Xano alone, 90 min) was 62.6% and the remaining activity at 0.1 µM (M4 mAChR [2]; 2 h, 120 min) was 94.7%. For the same compound, the remaining activity at 1 µM (M4 mAChR [2]; 2 h, 120 min) was 64.9%, the remaining activity at 100 µM (M4 mAChR [2]; 2 h, 10 μM Atropine + 100 μM Xanomeline, 120 min) was 52.9% and the remaining activity at 100 µM (M4 mAChR [2]; 2 h, 100 μM Xano alone, 120 min) was 61.2%. The remaining activity at 0.1 µM (M4 mAChR [2]; 3 h, 180 min) was 92.1%, the remaining activity at 1 µM (M4 mAChR [2]; 3 h, 180 min) was 60.5% and the remaining activity at 10 µM (M4 mAChR [2]; 3 h, 180 min) was 32.7%. The remaining activity at 100 µM (M4 mAChR [2]; 3 h, 100 μM Xano alone, 180 min) was 46.6%, the remaining activity at 0.1 µM (M4 mAChR [2]; 5 h, 300 min) was 89.8% and the remaining activity at 1 µM (M4 mAChR [2]; 5 h, 300 min) was 57.5%. For the same compound, the remaining activity at 100 µM (M4 mAChR [2]; 5 h, 10 μM Atropine + 100 μM Xanomeline, 300 min) was 26.7%, the remaining activity at 10 µM (M4 mAChR [2]; 5 h, 300 min) was 17.9% and the remaining activity at 100 µM (M4 mAChR [2]; 5 h, 100 μM Xano alone, 300 min) was 34.6%. For the same compound, the “rebinding of [3H]-NMS (in words)” value (M4 mAChR [3]; 10 µM xanomeline alone) was “prevented the rebinding” and the “[3H]-NMS dissociation (in words)” value (M4 mAChR [3]; 100 µM xanomeline alone) was “slowed to the same extent”.
